Earlier results, collected in patent US12685710B2, “Administration of ciclopirox with no adversal gastrointestinal toxicity” (ATLAS MOLECULAR PHARMA, S.L., priority 2021, dated 2026).

System: patients with hematological malignancies

## Cc1cc(C2CCCCC2)n(O)c(=O)c1 [ciclopirox olamine, 6-cyclohexyl-1-hydroxy-4-methyl-2 (1H)-pyridone with 2-aminoethanol in a 1:1 ratio]
oral, OraSweet formulation, 80 mg/m^2 (2.2 mg/kg) 4 times daily
  grade 3 GI dose limiting toxicity (DLTs) and bowel inflammation, patients affected in cohort: 3/4
oral, once daily up to and including 40 mg/m^2 (1.1 mg/kg)
  tolerability of once-daily dosing: well tolerated
Patients treated with ciclopirox olamine
  gastrointestinal toxicity in Phase I study: showed gastrointestinal toxicity
